Source: ChEMBL document CHEMBL5523705, “High affinity and low PARP-trapping benzimidazole derivatives as a potential warhead for PARP1 degraders” (Eur J Med Chem, 2024)

Assays:
[1] = biological target: Poly [ADP-ribose] polymerase 1 (Homo sapiens, UniProt P09874); experiment: Inhibition of PARP1 (unknown origin) in presence of DNA and substrate by chemiluminescent assay
MDA-MB-436 = experiment: Inhibition of cell proliferation in human MDA-MB-436 cells assessed as PARP trapping effect; format: functional, cell-based
MCF7 = experiment: Inhibition of cell proliferation in human MCF7 cells; format: functional, cell-based
[2] = Inhibition of cell proliferation in HUVECs; format: toxicity, cell-based; conditions: human, HUVEC cells

Chain of Poly [ADP-ribose] polymerase 1 (P09874 whole entry): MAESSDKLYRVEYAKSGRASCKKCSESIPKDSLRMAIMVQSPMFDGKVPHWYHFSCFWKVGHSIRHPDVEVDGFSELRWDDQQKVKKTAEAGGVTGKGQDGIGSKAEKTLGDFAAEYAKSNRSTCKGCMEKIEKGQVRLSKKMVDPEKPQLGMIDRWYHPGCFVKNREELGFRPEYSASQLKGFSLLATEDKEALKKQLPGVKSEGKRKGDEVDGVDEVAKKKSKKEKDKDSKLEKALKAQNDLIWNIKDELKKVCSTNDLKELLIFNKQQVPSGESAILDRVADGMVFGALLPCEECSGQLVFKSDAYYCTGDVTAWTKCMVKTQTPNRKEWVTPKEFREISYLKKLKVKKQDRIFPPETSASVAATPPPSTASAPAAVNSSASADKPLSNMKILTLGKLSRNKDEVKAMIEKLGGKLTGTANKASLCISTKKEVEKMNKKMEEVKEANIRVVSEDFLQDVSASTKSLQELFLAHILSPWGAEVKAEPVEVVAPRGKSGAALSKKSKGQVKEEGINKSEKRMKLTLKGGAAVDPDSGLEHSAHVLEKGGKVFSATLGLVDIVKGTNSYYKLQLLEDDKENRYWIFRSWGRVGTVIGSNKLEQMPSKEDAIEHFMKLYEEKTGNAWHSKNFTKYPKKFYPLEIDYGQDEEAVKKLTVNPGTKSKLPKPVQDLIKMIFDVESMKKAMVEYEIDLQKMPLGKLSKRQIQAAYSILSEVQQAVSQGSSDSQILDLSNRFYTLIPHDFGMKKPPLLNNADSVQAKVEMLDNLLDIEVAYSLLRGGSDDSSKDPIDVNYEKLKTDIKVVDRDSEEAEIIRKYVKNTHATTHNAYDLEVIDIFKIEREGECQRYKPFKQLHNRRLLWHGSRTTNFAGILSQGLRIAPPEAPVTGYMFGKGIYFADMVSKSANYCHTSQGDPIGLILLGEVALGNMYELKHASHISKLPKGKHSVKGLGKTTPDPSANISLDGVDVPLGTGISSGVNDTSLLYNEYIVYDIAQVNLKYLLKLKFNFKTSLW

| SMILES | IC50 [1] | IC50 (MDA-MB-436; Homo sapiens, MDA-MB-436) | IC50 (MCF7; Homo sapiens, MCF7) | IC50 [2] | IC50 (MDA-MB-436; mda-mb-436) | IC50 (MCF7; mcf7) |
| --- | --- | --- | --- | --- | --- | --- |
| NC(=O)c1cccc2[nH]c(-c3ccc(C(=O)N4CCN(C(=O)c5ccco5)CC4)cc3)nc12 | 0.0541 µM | > 100 µM | > 100 µM | > 100 µM | – | – |
| NC(=O)c1cccc2[nH]c(-c3ccc(C(=O)N4CCN(C(=O)c5csc(Br)n5)CC4)cc3)nc12 | 0.00462 µM | > 100 µM | > 100 µM | > 100 µM | – | – |
| Cn1cncc1C(=O)N1CCN(C(=O)c2ccc(-c3nc4c(C(N)=O)cccc4[nH]3)cc2)CC1 | 0.0846 µM | > 100 µM | > 100 µM | > 100 µM | – | – |
| CC1CN(C(=O)c2ccc(-c3nc4c(C(N)=O)cccc4[nH]3)cc2F)CCN1C(=O)c1ccc(Cl)o1 (stereo unspecified) | 0.00685 µM | 21.8 µM | > 100 µM | 47.8 µM | – | – |
| Cn1cccc1C(=O)N1CCN(C(=O)c2ccc(-c3nc4c(C(N)=O)cccc4[nH]3)cc2)CC1 | 0.0456 µM | > 100 µM | > 100 µM | > 100 µM | – | – |
| NC(=O)c1cccc2[nH]c(-c3ccc(C(=O)NC4CCN(c5ccco5)C4)c(F)c3)nc12 (stereo unspecified) | 0.009 µM | 20.5 µM | > 100 µM | 67.1 µM | – | – |
| NC(=O)c1cccc2[nH]c(-c3ccc(C(=O)N4CCN(C(=O)c5ccccn5)CC4)cc3)nc12 | 0.0506 µM | > 100 µM | > 100 µM | > 100 µM | – | – |
| NC(=O)c1cccc2[nH]c(-c3ccc(C(=O)N4CCN(C(=O)c5ccco5)CC4)c(F)c3)nc12 | 0.0324 µM | > 100 µM | > 100 µM | > 100 µM | – | – |
| O=C(c1cc(Cc2n[nH]c(=O)c3ccccc23)ccc1F)N1CCN(C(=O)C2CC2)CC1 [OLAPARIB] | – | 23.9 µM | > 100 µM | > 100 µM | – | – |
| C[C@]1(c2nc3c(C(N)=O)cccc3[nH]2)CCCN1 [VELIPARIB] | – | – | – | > 100 µM | > 100 µM | > 100 µM |

More lines, main results first:

| IC50 [1] | IC50 (MDA-MB-436; Homo sapiens, MDA-MB-436) | IC50 (MCF7; Homo sapiens, MCF7) | SMILES | IC50 [2] | IC50 (MDA-MB-436; mda-mb-436) | IC50 (MCF7; mcf7) |
| --- | --- | --- | --- | --- | --- | --- |
| – | 16.4 µM | > 100 µM | NC(=O)c1cccc2[nH]c(-c3ccc(C(=O)NC4CCN(c5ccc(Br)o5)C4)c(F)c3)nc12 (stereo unspecified) | > 100 µM | – | – |
| – | 14.9 µM | > 100 µM | CC1CN(C(=O)c2ccc(-c3nc4c(C(N)=O)cccc4[nH]3)cc2F)CCN1C(=O)c1ccc(Br)o1 (stereo unspecified) | 52.6 µM | – | – |
| 0.00518 µM | 9.09 µM | > 100 µM | Cc1ccoc1C(=O)N1CCN(C(=O)c2ccc(-c3nc4c(C(N)=O)cccc4[nH]3)cc2F)CC1C (stereo unspecified) | 85.3 µM | – | – |
| 0.00572 µM | 17.3 µM | > 100 µM | Cc1ccc(C(=O)N2CCN(C(=O)c3ccc(-c4nc5c(C(N)=O)cccc5[nH]4)cc3F)CC2C)o1 (stereo unspecified) | > 100 µM | – | – |
| 0.00438 µM | 7.6 µM | > 100 µM | NC(=O)c1cccc2[nH]c(-c3ccc(C(=O)NC4CCN(c5ccc(Cl)o5)C4)c(F)c3)nc12 (stereo unspecified) | > 100 µM | – | – |
